Measured values published in paper PMC6835155, “Lessons from LIMK1 enzymology and their impact on inhibitor design” (Biochemical Journal, 2019).
Like-named read-outs stand apart in the source and are kept apart here.

Legend:
LIMK2KD = target: T1, LIMK2KD (Homo sapiens, UniProt P53671); test: Differential (dynamic) scanning fluorimetry (DSF) assay, LIMK2KD; assay type: binding; settings: for ΔTm at 10 µM: read-out: TM Shift LIMK2 (K)
T1 construct: The cDNA coding for LIMK2 residues 330 to 632 was PCR amplified; His6 (N, cleaved yes); made in house; host or cells: baculovirus; Sf9 for virus, TriEx insect cells for expression

LIMK1KD [1] = target: T2, LIMK1KD (Homo sapiens, UniProt P53667); test: Differential (dynamic) scanning fluorimetry (DSF) assay, LIMK1KD; assay type: binding; settings: for ΔTm at 10 µM: read-out: TM Shift LIMK1 (K)
T2 construct: His6 (N, cleaved yes); made in house; host or cells: baculovirus; Sf9 for virus, TriEx insect cells for expression

LIMK1KD [2] = target: T2, LIMK1KD; test: RapidFire mass spec kinase activity assay (CFL1 phosphorylation); assay type: biochemical; settings: 40 nM LIMK1KD, 2 µM CFL1, 800 µM ATP, 60 min; read-out: LIMK1 IC50
LIMK1 = settings: cited from earlier work
[3] = LIMK2KD, compound 10 µM, single shot
[4] = 2 µM LIMK1KD, compound 10 µM, single shot
[5] = LIMK2KD, compound 10 µM, single shot, 10 µM

T2 sequence (P53667 330-637): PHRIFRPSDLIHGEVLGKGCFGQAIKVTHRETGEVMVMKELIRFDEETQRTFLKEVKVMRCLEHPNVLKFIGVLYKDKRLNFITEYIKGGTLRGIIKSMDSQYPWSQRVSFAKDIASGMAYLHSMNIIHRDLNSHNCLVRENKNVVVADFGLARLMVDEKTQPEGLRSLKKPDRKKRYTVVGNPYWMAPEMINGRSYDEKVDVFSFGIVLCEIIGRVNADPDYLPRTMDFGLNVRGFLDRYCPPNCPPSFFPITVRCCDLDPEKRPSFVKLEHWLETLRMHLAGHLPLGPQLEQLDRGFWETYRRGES
T1 sequence (P53671 330-632): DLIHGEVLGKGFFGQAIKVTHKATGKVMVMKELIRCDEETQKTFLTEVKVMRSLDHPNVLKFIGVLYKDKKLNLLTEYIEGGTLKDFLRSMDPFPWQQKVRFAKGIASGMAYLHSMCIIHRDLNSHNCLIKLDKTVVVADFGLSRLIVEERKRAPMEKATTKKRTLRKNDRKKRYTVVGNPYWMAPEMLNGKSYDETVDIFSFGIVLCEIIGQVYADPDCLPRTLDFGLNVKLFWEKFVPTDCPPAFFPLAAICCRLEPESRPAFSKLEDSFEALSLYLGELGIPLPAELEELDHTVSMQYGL

Compound	ΔTm at 10 µM (LIMK2KD; [3]) [°C]	ΔTm at 10 µM (LIMK1KD [1]; [4]) [°C]	TM Shift LIMK1 (K) (LIMK1KD [1]; [4])	TM Shift LIMK2 (K) (LIMK2KD; [3])	other results
CNC(=O)c1cc(Oc2ccc(NC(=O)Nc3cc(C(C)(C)C)nn3-c3ccc4ncccc4c3)c(F)c2)ccn1 [DCC-2036 (Rebastinib), Rebastinib]	4.8	10	–	–	IC50 (LIMK1KD [2]): 0.075 µM
CC(C)(C)c1nc(-c2cccc(NS(=O)(=O)c3c(F)cccc3F)c2F)c(-c2ccnc(N)n2)s1 [Dabrafenib (GSK2118436), Dabrafenib]	11.1	10.3	10	–	TM Shift LIMK2 (K) (LIMK2KD; [5]): 11 K; IC50 (LIMK1KD [2]): 0.014 µM
Cc1c[nH]c2ncnc(N3CCC(CN)(C(=O)Nc4cccc(OC(=O)N(C)C)c4)CC3)c12 [LX-7101]	–	–	–	–	IC50 (LIMK1; read-out: LIMK1 IC50): 0.032 µM
Cn1cc(-c2[nH]c3cc(NC(=O)[C@H](N)C4CCCCC4)cc4c3c2C=NNC4=O)cn1 [PF-477736]	9	11.1	11	–	IC50 (LIMK1KD [2]): 0.0044 µM
Cc1cnc(Nc2ccc(F)cc2Cl)nc1-c1c[nH]c(C(=O)N[C@H](CO)c2cccc(Cl)c2)c1 [VX-11E]	–	–	0.0	-1.6	–
Cc1cc(Nc2cc(N3CCN(C)CC3)nc(Sc3ccc(NC(=O)C4CC4)cc3)n2)[nH]n1 [VX-680 (Tozasertib, MK-0457), Tozasertib]	0	3.4	–	–	–
COc1cc2c(Nc3ccc(Br)cc3F)ncnc2cc1OCC1CCN(C)CC1 [Vandetanib (ZD6474), Vandetanib]	0.1	0.1	–	–	–
C[C@@H]1COC(Nc2ccc3ncnc(Nc4ccc(OCc5nccs5)c(Cl)c4)c3c2)=N1 [Varlitinib]	0.8	0.9	–	–	–
Clc1ccc(Nc2nnc(Cc3ccncc3)c3ccccc23)cc1 [Vatalanib (PTK787) 2HCl, Vatalanib]	-0.3	-0.5	–	–	–
CCCS(=O)(=O)Nc1ccc(F)c(C(=O)c2c[nH]c3ncc(-c4ccc(Cl)cc4)cc23)c1F [Vemurafenib (PLX4032, RG7204), Vemurafenib]	6	1.5	–	–	–
CC[C@@H]1C(=O)N(C)c2cnc(Nc3ccc(C(=O)N[C@H]4CC[C@H](N5CCN(CC6CC6)CC5)CC4)cc3OC)nc2N1C(C)C [Volasertib (BI 6727), Volasertib]	0.3	0.5	–	–	–
CCn1c(=O)c(-c2cc[nH]n2)cc2c(C)nc(N)nc21 [Voxtalisib]	–	–	0.2	–	TM Shift LIMK2 (K) (LIMK2KD; [5]): 0.4 K
COc1cc2ncnc(Nc3ccc(O)c(Br)c3)c2cc1OC [WHI-P154]	–	–	1.5	-0.2	–
CNC(=O)Nc1ccc(-c2nc(N3CC4CCC(C3)O4)c3cnn(C4CCC5(CC4)OCCO5)c3n2)cc1 [WYE-125132 (WYE-132)]	–	–	0.5	0.9	–
COC[C@H]1OC(=O)c2coc3c2[C@@]1(C)C1=C(C3=O)[C@@H]2CCC(=O)[C@@]2(C)C[C@H]1OC(C)=O [Wortmannin]	0.1	0.2	–	–	–
C[C@@H](N)[C@H]1CC[C@H](C(=O)Nc2ccncc2)CC1.Cl.Cl [Y-27632 2HCl]	–	–	-0.7	0.9	–
CC(C)N(CCC(=O)c1ccc2ccccc2c1)Cc1ccccc1.Cl [ZM 39923 HCl]	–	–	0.2	-1.4	–
COc1cc2ncnc(Nc3ccc(Cl)cc3F)c2cc1OC [ZM 306416]	–	–	0.4	1.8	–
Cc1cc(F)c(Nc2ncnc3cc(OCc4ccccc4)ccc23)cc1O.Cl [ZM 323881 HCl]	–	–	0.0	2.6	–
Cc1ccc(NC(=O)c2cccc(N(C)C)c2)cc1NC(=O)c1ccc(O)cc1 [ZM 336372]	–	–	0.7	0.2	–
COc1cc2c(Nc3ccc(NC(=O)c4ccccc4)cc3)ncnc2cc1OCCCN1CCOCC1 [ZM 447439]	–	–	0.1	0.8	–
O=P(O)(O)C(O)(Cn1ccnc1)P(=O)(O)O [Zoledronic Acid]	1.3	-0.7	–	–	–
AZ23	–	–	3.6	0.8	–
AZD4547	–	–	-0.1	-0.1	–
CHIR-98014	–	–	–	–	TM Shift LIMK2 (K) (LIMK2KD; 10 µM): 0.0 K; TM Shift LIMK1 (K) (LIMK1KD [1]): 5.0 K
WYE-354	–	–	0.2	4.1	–

Now from value to compound, other results behind:

ΔTm at 10 µM (LIMK2KD; [3]) [°C]	ΔTm at 10 µM (LIMK1KD [1]; [4]) [°C]	TM Shift LIMK1 (K) (LIMK1KD [1]; [4])	TM Shift LIMK2 (K) (LIMK2KD; [3])	Compound	other results
-0.6	0.6	–	–	NC(=O)c1ccc(N(C(N)=O)c2c(F)cccc2F)nc1-c1ccc(F)cc1F [VX-702]	–
1.3	0.6	–	–	O=c1ncn2nc(Sc3ccc(F)cc3F)ccc2c1-c1c(Cl)cccc1Cl [VX-745]	–
–	–	-0.1	-0.2	c1cncc(CN2CCC(n3ncc4c(N5CCOCC5)nc(-c5ccc6[nH]ccc6c5)nc43)CC2)c1 [WAY-600]	–
0.4	-0.3	–	–	C[C@H](NC(=O)/C(C#N)=C/c1cccc(Br)n1)c1ccccc1 [WP1066]	–
–	–	1.9	1.5	C=CC(=O)Nc1cccc(Oc2nc(Nc3ccc(N4CCN(C)CC4)cc3)ncc2Cl)c1 [WZ3146]	–
1.8	1	–	–	C=CC(=O)Nc1cccc(Oc2nc(Nc3ccc(N4CCN(C)CC4)cc3OC)ncc2Cl)c1 [WZ4002]	–
-0.8	0.4	–	–	CCC(=O)Nc1cccc(Oc2nc(Nc3ccc(N4CCN(C)CC4)cc3OC)ncc2Cl)c1 [WZ4003]	–
–	–	3.1	5.2	C=CC(=O)Nc1cccc(Sc2nc(Nc3ccc(N4CCN(C)CC4)cc3)ncc2Cl)c1 [WZ8040]	–
1.6	4	–	–	O=C(Nc1ccc(-c2ccnc(Nc3ccc(N4CCOCC4)cc3)n2)cc1)C1CCCN1 (centres unmarked) [XL019]	–
–	–	-0.1	–	COc1ccc(Cl)c(Nc2nc3ccccc3nc2NS(=O)(=O)c2cccc(NC(=O)C(C)(C)N)c2)c1 [XL147]	TM Shift LIMK2 (K) (LIMK2KD; [5]): 0.6 K
–	–	-1.4	2.7	Cc1c(C(=O)N2CCOc3ccc(-c4ccc(N)nc4)cc3C2)ccc(S(C)(=O)=O)c1F [XL388]	–
–	–	0.6	3.8	Nc1ccc(C(=O)Nc2cccc(-c3nc(N4CCOCC4)c4oc5ncccc5c4n3)c2)cn1 [YM201636]	–
–	–	-1.0	1.2	Cc1cc(C)nc(NS(=O)(=O)c2ccc(NC(=S)NC(=O)COc3ccc(Br)cc3Cl)cc2)n1 [ZCL278]	–
0	-1	–	–	FC(F)c1nc2ccccc2n1-c1nc(N2CCOCC2)nc(N2CCOCC2)n1 [ZSTK474]	–
